Assay results taken from the supplement of paper PMC4858399.

Columns and labels:
Details in all cases: exposure time 48 h
[1] = system: Caenorhabditis elegans N2; experiment: lowest effective concentration for larval growth inhibition (size below effect threshold); higher = less potent
Procedure, shortened: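 Chemical exposure ran for 48 h at 20°C: 50 C. elegans N2 L1 larvae per 96-well in K-medium with killed bacteria, 1% DMSO and 0.5, 1, 5, 10, 50, 100 or 200 µM chemical. Extinction of each worm, read as size on the Biosort, was log-transformed and averaged by well. The lowest effective concentration is the first dose whose plate-adjusted mean size is below a fixed value and remains so at all higher doses; the value is 5.665.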

[2] = system: Caenorhabditis elegans N2; experiment: AC50 for larval growth inhibition (Hill fit); higher = less potent
Procedure, shortened: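 Worms were synchronised C. elegans N2 L1 larvae, 50 per well of a 96-well plate, kept 48 h at 20°C in K-medium with killed OP50, 1% DMSO and 0.5–200 µM chemical. Size was taken as COPAS Biosort extinction, log-transformed and averaged per well, using only wells with at least 10 worms. AC50 was estimated by a constrained Hill fit with weighted genetic-algorithm regression; values outside the range are censored.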

[3] = system: Caenorhabditis elegans N2; experiment: mean nematode size ln(EXT) after 48 h, plate-adjusted (DMSO control set to 6) (ln(EXT), control-adjusted); higher = larger nematodes / less growth inhibition
Procedure, shortened: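 Each treatment used 4–6 wells of 50 synchronised C. elegans N2 L1 larvae, kept for 48 h at 20°C in K-medium with killed OP50, 1% DMSO and 0.5–200 µM chemical. Debris was excluded by a growth model after the Biosort measured per-worm extinction. Mean size per well came from natural-logged values and was plate-adjusted. That adjustment subtracted the vehicle control mean and then added 6.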

Structure (SMILES)	lowest effective concentration [1] [µM]	AC50 for larval growth inhibition [2] [µM]	mean nematode size ln(EXT) (ln) ([3]; 0.5 µM)	mean nematode size ln(EXT) (ln) ([3]; 1 µM)	mean nematode size ln(EXT) (ln) ([3]; 5 µM)	mean nematode size ln(EXT) (ln) ([3]; 10 µM)	mean nematode size ln(EXT) (ln) ([3]; 50 µM)	mean nematode size ln(EXT) (ln) ([3]; 100 µM)	mean nematode size ln(EXT) (ln) ([3]; 200 µM)
COC(=O)NC(=S)Nc1ccccc1NC(=S)NC(=O)OC [Thiophanate-methyl]	200	> 200	5.88	5.84	5.76	5.87	5.83	5.73	5.41
CN(C)C(=S)SSC(=S)N(C)C [Thiram]	50	48.9	6	6.02	6.06	6.13	5.55	5.36	5.13
CCO/N=C(\CC)C1=C(O)CC(c2c(C)cc(C)cc2C)CC1=O (centres undefined) [Tralkoxydim]	200	109	5.85	5.93	5.9	6.14	6.08	5.93	5.48
NC(=O)Cn1c(=O)cc(CCN2CCN(c3nccc4sccc34)CC2)c2ccc(F)cc21 [Trelanserin]	200	> 200	5.9	5.78	5.75	5.81	5.71	5.7	5.54
CCCCCCCCOC(=O)c1ccc(C(=O)OCCCCCCCC)c(C(=O)OCCCCCCCC)c1 [Tri (n-octyl) Trimellitate]	200	> 200	5.86	5.93	5.95	5.85	5.91	5.92	5.64
CC(C)N(C(=O)SCC(Cl)=C(Cl)Cl)C(C)C [Tri-allate]	50	86.7	5.72	5.91	5.86	5.9	5.39	4.62	3.99
CC(C)(C)C(=O)C(Oc1ccc(Cl)cc1)n1cncn1 (centres undefined) [Triadimefon]	200	> 200	5.76	5.75	5.57	5.71	5.98	5.91	5.36
CC(C)(C)C(O)C(Oc1ccc(Cl)cc1)n1cncn1 (centres undefined) [Triadimenol]	200	> 200	5.84	5.88	5.9	5.93	5.79	5.95	5.59
CCCCSP(=O)(SCCCC)SCCCC [Tribufos]	5	5.32	5.81	5.73	5.58	3.53	3.25	3.33	4.2
CCC[CH2][Sn]([Cl])([CH2]CCC)[CH2]CCC [Tributyltin chloride]	≤ 0.5	< 0.5	4.58	4.74	3.7	3.56	3.85	3.97	3.48
COP(=O)(OC)C(O)C(Cl)(Cl)Cl (centres undefined) [Trichlorfon]	5	80.1	5.57	5.69	5.42	5.31	4.77	4.73	3.96
O=C(O)COc1nc(Cl)c(Cl)cc1Cl [Triclopyr]	50	156	6.07	6.1	6.13	6.08	5.61	5.48	4.06
Oc1cc(Cl)ccc1Oc1ccc(Cl)cc1Cl [Triclosan]	10	49.9	5.89	5.86	5.85	5.64	4.79	4.27	4
CCCCCCCCCCCCCN1CC(C)OC(C)C1 (centres undefined) [Tridemorph]	100	174	5.89	5.94	5.84	5.85	5.73	5.49	4.26
CCCCCCCCCCCCc1cccc(S(=O)(=O)O)c1 [Triethanolamine dodecylbenzene sulfonate]	50	50.5	5.43	5.59	5.54	5.69	5.03	4.02	4.04
COCCOCCOCCOC [Triethylene glycol dimethyl ether]	200	> 200	5.75	6.01	5.91	5.91	5.72	5.81	5.64
CO/N=C(/C(=O)OC)c1ccccc1CO/N=C(\C)c1cccc(C(F)(F)F)c1 [Trifloxystrobin]	100	90.8	5.88	5.87	5.71	5.82	5.92	4.16	3.43
COc1cc(OC)nc(NC(=O)NS(=O)(=O)c2ncccc2OCC(F)(F)F)n1 [Trifloxysulfuron-sodium]	200	196	5.81	5.77	6.02	5.88	5.9	5.97	5.51

Structure (SMILES)	lowest effective concentration [1] [µM]	AC50 for larval growth inhibition [2] [µM]	mean nematode size ln(EXT) (ln) ([3]; 0.5 µM)	mean nematode size ln(EXT) (ln) ([3]; 1 µM)	mean nematode size ln(EXT) (ln) ([3]; 5 µM)	mean nematode size ln(EXT) (ln) ([3]; 10 µM)	mean nematode size ln(EXT) (ln) ([3]; 50 µM)	mean nematode size ln(EXT) (ln) ([3]; 100 µM)	mean nematode size ln(EXT) (ln) ([3]; 200 µM)
CCCOC/C(=N\c1ccc(Cl)cc1C(F)(F)F)n1ccnc1 [Triflumizole]	100	21.3	5.97	6.09	4.54	6.04	5.95	4.88	3.47
CCCN(CCC)c1c([N+](=O)[O-])cc(C(F)(F)F)cc1[N+](=O)[O-] [Trifluralin]	200	53	5.85	6.06	6.05	6	5.03	6.06	3.63
O=c1n(CC2CO2)c(=O)n(CC2CO2)c(=O)n1CC1CO1 (centres undefined) [Triglycidyl isocyanurate]	100	> 200	5.88	5.83	5.84	5.89	5.86	5.42	5.65
O=P(Oc1ccccc1)(Oc1ccccc1)Oc1ccccc1 [Triphenyl phosphate]	1	20.5	5.84	5.63	5.25	4.99	4.17	3.78	3.66
O=P(OC(CCl)CCl)(OC(CCl)CCl)OC(CCl)CCl [Tris(1,3-dichloro-2-propyl) phosphate (TDCPP)]	50	117	5.85	5.86	5.83	5.77	5.39	4.98	3.63
CCCCC(CC)COC(=O)c1ccc(C(=O)OCC(CC)CCCC)c(C(=O)OCC(CC)CCCC)c1 (centres undefined) [Tris(2-ethylhexyl)trimellitate]	200	> 200	5.91	5.93	5.94	5.81	5.93	5.87	5.53
CC1(C)CC/C(=C\c2ccc(Cl)cc2)C1(O)Cn1cncn1 (centres undefined) [Triticonazole]	200	120	5.82	5.72	6.07	5.84	5.91	5.68	5.25
Cc1c(C)c2c(c(C)c1O)CCC(C)(COc1ccc(CC3SC(=O)NC3=O)cc1)O2 (centres undefined) [Troglitazone]	50	47.7	5.7	5.77	5.66	5.69	4.39	4.11	3.59
CCCCCCCCCCC [Undecane]	200	> 200	5.95	5.92	5.86	5.83	5.86	5.9	5.57
C=CC1(C)OC(=O)N(c2cc(Cl)cc(Cl)c2)C1=O (centres undefined) [Vinclozolin]	1	1.18	5.76	5.01	3.56	3.46	3.32	3.11	3.61
CC(=O)CC(c1ccccc1)c1c(O)c2ccccc2oc1=O (centres undefined) [Warfarin]	200	> 200	5.8	5.94	5.97	5.89	5.91	5.81	5.59
c1ccc(C(O[C@@H]2CCCN(CCc3ccc4c(c3)OCO4)C2)c2ccccc2)cc1 [Zamifenacin]	10	70.4	5.83	5.81	5.73	5.55	4.99	4.17	3.31
O=C(O)Cn1c(=O)n(Cc2ccc(Br)cc2F)c(=O)c2ccc(Cl)cc21 [Zenarestat]	200	> 200	5.91	5.87	5.84	6.11	5.77	5.77	5.4
C[C@]12CC[C@@H]3c4ccc(O)cc4CC[C@H]3[C@@H]1CC[C@@H]2O [beta-Estradiol]	200	188	5.85	5.81	5.8	5.84	5.75	5.94	5.2
CC(C)=CCC/C(C)=C\CO [cis-3,7-Dimethyl-2,6-octadien-1-ol]	200	> 200	5.8	5.76	5.79	5.75	5.78	5.69	5.63
COC(=O)Nc1nc2ccccc2[nH]1 [methyl 1H-benzimidazol-2-ylcarbamate]	5	6.43	5.81	5.7	5.32	5.32	5.06	4.58	4.89
Clc1ccc(C(c2ccccc2Cl)C(Cl)(Cl)Cl)cc1 (centres undefined) [o,p'-DDT]	10	24.1	5.7	5.89	5.78	5.19	4.4	4.09	3.85
Clc1ccc(C(c2ccc(Cl)cc2)C(Cl)Cl)cc1 [p,p'-DDD]	≤ 0.5	1.88	5.59	5.57	3.62	3.7	3.68	3.57	3.14
